Values quoted from earlier work as cited in US20100086495A1, “COMPOSITIONS AND METHODS FOR ENHANCING TRANSMUCOSAL DELIVERY” (DERMA-YOUNG LTD., priority 2007, published 2010).

Settings: vitamin B12 deficient subjects

vitamin B12
increase in serum concentration levels of the vitamin, sublingual versus conventional oral vitamin B12: same extent of increase
